“And” between values parts separate entries of the source, which are not always exact repeats. Equal values may be shown once. Marks after values point to notes of the source that are not given here. Values belong to the molecule of their own block, whether it stands above or below them.
Experiments:
12CS0366 [1] = test: Greenhouse dose-response to thifensulfuron-methyl (height, biomass); assay type: in vivo, Camelina sativa; conditions: 21 days after application, rates 0 to 525 g ai/ha, n = 16
12CS0365 [2] = test: as above; assay type: in vivo, Camelina sativa; conditions: 21 days after application, rates 0 to 525 g ai/ha, n = 16
13CS0786 [3] = test: Phenotype scoring (R/S) after thifensulfuron-methyl 2.5 g ai/ha; assay type: in vivo, Camelina sativa; conditions: 7 d after application
Text: (§1) At a thifensulfuron-methyl application rate of 2.5 g ai/ha, plants from parental, F2, BC1F1, and BC4F2 populations could easily be scored into one of two discrete phenotypic classes (R, resistant or S, susceptible) 7 d after herbicide application.

12CS0365 [4] = test: as above; assay type: in vivo, Camelina sativa; conditions: 7 d after application
Text: as §1

12CS0366 [5] = test: as above; assay type: in vivo, Camelina sativa; conditions: 7 d after application
Text: as §1

10CS0048 (MIDAS) = test: as above; assay type: in vivo, Camelina sativa; conditions: 7 d after application
Text: as §1

SRS 934 [6] = test: as above; assay type: in vivo, Camelina sativa; conditions: 7 d after application
Text: as §1

[7] = system: segregating camelina populations; test: Segregation of resistance to thifensulfuron-methyl in F2, BC1F1 and BC4F2 populations; assay type: in vivo, Camelina sativa; conditions: 2.5 g ai/ha, 7 d
Text: From each cross combination, randomly selected F1 plants were selfed for the development of F2 populations segregating for 1 resistance gene.
Further, mutant lines 12CS0365 and 12CS0366 were crossed with each other and a randomly selected F1 plant selfed for the development of an F2 population segregating for 2 independent resistance genes. F4 progeny of F2 plants homozygous for both resistance genes (13CS0786) was backcrossed to 10CS0048 to form a backcross (BC1F1) population. Further backcrossing to the recurrent parent 10CS0048 was conducted until stabilization of the trait in the BC4F3 generation (homozygous for 2 resistance genes).
as §1
Assuming inheritance in a Mendelian manner, the expected genotypic segregation ratio in an F2 population segregating for a single resistance gene would be 1(RR): 2(Rr): 1(rr), or 3(RR, Rr): 1(rr).
If two unlinked genes for resistance are segregating in an F2 population, the expected genotypic segregation ratio would be 9 (R1-R2-): 2 (R1r1r2r2): 2 (r1r1R2r2): 1 (R1R1r2r2): 1 (r1r1R2R2): 1 (r1r1r2r2), or 15 (R1-R2-, R1r1r2r2, r1r1R2r2, R1R1r2r2, r1r1R2R2): 1 (r1r1r2r2). The expected genotypes in the BC1F1 population would be R1r1R2r2, R1r1r2r2, r1r1R2r2, and r1r1r2r2, each produced in equal frequency, resulting in a segregation ratio of 1 (R1r1R2r2): 2 (R1r1r2r2, r1r1R2r2): 1 (r1r1r2r2), or 3 (R1r1R2r2, R1r1r2r2, r1r1R2r2): 1 (r1r1r2r2). The expected segregation ratio in the BC4F2 generation would be the same as that observed in the F2 population.
The F2 population resulting from the reciprocal cross of 10CS0048 with 12CS0365 and 12CS0366, respectively, the F2 population resulting from the cross 12CS0365/12CS0366 and the BC1F1 and BC4F2 populations resulting from the cross of F4 plants homozygous for 2 resistance genes (13CS0786) with recurrent parent 10CS0048, gave good fit to the expected segregation ratios (Table 7).

SRS 934 [8] = test: Greenhouse dose-response to thifensulfuron-methyl (height, biomass); assay type: in vivo, Camelina sativa; conditions: 21 days after application, rates 0 to 525 g ai/ha, n = 16
13CS0786 [9] = test: as above; assay type: in vivo, Camelina sativa; conditions: 21 days after application, rates 0 to 525 g ai/ha, n = 16
AHAS of 14CS0851-01-14 = test: AHAS product feedback inhibition assay; assay type: biochemical, Camelina sativa; conditions: for sensitivity of AHAS to feedback inhibition, comparison of enzyme extracts: 14CS0851-01-14 vs SRS 934 and MIDAS, 1 mM, 10 mM; for Absorbance reading (530 nm), raw data: single reps
Method: (§2) Briefly, for each of the three comparators, leaf and stem (petiole) material was bulk-harvested at the 3-4 leaf stage from at least 30 plantlets, snap-frozen in liquid nitrogen, and stored at −80° C. The AHAS in vitro assay was conducted according to the method of Singh et al (1988), with modifications by Yu (2010) and Rustgi (2014). For each comparator, 4 grams of frozen material were ground to a fine powder with a mortar and pestle in liquid nitrogen and homogenized in 1 volume of cold extraction buffer containing 100 mM potassium phosphate buffer (pH7.5), 10 mM sodium pyruvate, 5 mM MgCl2, 100 μM flavin adenine dinucleotide (FAD), and 10% glycerol. Four 2-mL microcentrifuge tubes were used for each comparator. The homogenate was centrifuged at 13,000 rpm for 10 min at 4° C., supernatant collected and re-centrifuged for an additional 10 minutes under the same conditions. For each tube, 1 mL of supernatant was pipetted into a new 2-mL microcentrifuge tube, and protein was precipitated by the addition of 1 mL of saturated ammonium sulfate. The solution was mixed well by vortex and allowed to stand on ice for 20 minutes, then centrifuged at 13,000 rpm at 4° C. The protein pellet was resuspended in 300 μL of reaction buffer containing 50 mM potassium phosphate buffer (pH7.5), 100 mM sodium pyruvate, 10 mM MgCl2, 1 mM EDTA, 10 μM FAD, 100 mM NaCl, and 1 mM thiamine pyrophosphate. Tubes of each comparator were combined, mixed well, kept on ice and immediately used in the AHAS activity and feedback inhibition assays.
(§3) Total protein concentration of the crude extract was determined by the Bradford method (Bradford, 1976). All assays were conducted using 300 μg of total protein each.
(§4) […] (2010). The reaction mixture contained 50 μL enzyme extract and 50 μL 100 mM sodium pyruvate and inhibitor amino acid. The reaction was incubated at 37° C. for 60 minutes, then stopped and acetolactate converted to acetoin with the addition of 20 μL of 6 N H2SO4 and incubated at 60° C. for 15 minutes. A separate background “blank” was included for each sample group by adding 20 μL of 6 N H2SO4 prior to the addition of the enzyme extracts. Then, 95 μL of 0.55% w/v creatine solution and 95 μL of α-naphthol solution (5.5% w/v in 5 N NaOH) were added and the mixture incubated at 60° C. for a further 15 minutes. After cooling to room temperature for 15 minutes, enzyme activity was determined colorimetrically by reading the absorbance at 530 nm. Three independent experiments were conducted. Experiment 1 and 2 each contained 2 technical replicates, while experiment 3 included 3 technical replicates.

AHAS of SRS 934 = test: AHAS product feedback inhibition assay; assay type: biochemical, Camelina sativa; conditions: for Absorbance reading (530 nm), raw data: single reps
Method: as §2, §3, §4

AHAS of MIDAS = test: AHAS product feedback inhibition assay; assay type: biochemical, Camelina sativa; conditions: for Absorbance reading (530 nm), raw data: single reps
Method: as §2, §3, §4

[10] = F2 of 12CS0365 × 10CS0048 (reciprocal)
[11] = F2 of 12CS0366 × 10CS0048 (reciprocal)
[12] = Experiment 1, 30 (mM) amino acid
[13] = Experiment 2, 30 (mM) amino acid
[14] = Experiment 2, 100 mM amino acid
[15] = Experiment 3, 30 (mM) amino acid
[16] = Experiment 2, 10 mM amino acid, listed as Valine

SMILES: COC(=O)c1sccc1S(=O)(=O)NC(=O)Nc1nc(C)nc(OC)n1 [thifensulfuron-methyl]
ED50 biomass (12CS0366 [1]): 8.67 g ai/ha
ED50 height (12CS0366 [1]): 5.25 g ai/ha
ED50 biomass (12CS0365 [2]): 0.69 g ai/ha
ED50 height (12CS0365 [2]): 1.81 g ai/ha
phenotype after herbicide application (13CS0786 [3]): resistant phenotype
phenotype after herbicide application (12CS0365 [4]): resistant phenotype
phenotype after herbicide application (12CS0366 [5]): resistant phenotype
phenotype after herbicide application (10CS0048 (MIDAS)): either killed or greatly damaged
phenotype after herbicide application (SRS 934 [6]): either killed or greatly damaged
Resistant (R), number of plants ([7]; BC1F1 of 10CS0048 × 13CS0786): 27 (27)^
Susceptible (S), number of plants ([7]; BC1F1 of 10CS0048 × 13CS0786): 9 (9)
Resistant (R), number of plants ([7]; BC4F2 of 10CS0048 × 13CS0786): 147 (147.2)
Susceptible (S), number of plants ([7]; BC4F2 of 10CS0048 × 13CS0786): 10 (9.8)
Resistant (R), number of plants [7, 10]: 555 (568)^‡
Susceptible (S), number of plants [7, 10]: 202 (189)
Resistant (R), number of plants ([7]; F2 of 12CS0365 × 12CS0366): 307 (306.6)
Susceptible (S), number of plants ([7]; F2 of 12CS0365 × 12CS0366): 20 (20.4)
Resistant (R), number of plants [7, 11]: 549 (540)^
Susceptible (S), number of plants [7, 11]: 171 (180)
ED50 biomass (SRS 934 [8]): 0.09 g ai/ha
ED50 height (SRS 934 [8]): 0.14 g ai/ha
ED50 biomass (13CS0786 [9]): 89.61 g ai/ha
ED50 height (13CS0786 [9]): 26.36 g ai/ha

sensitivity of AHAS to feedback inhibition, comparison of enzyme extracts (AHAS of 14CS0851-01-14; 100 mM amino acid): no significant difference
SMILES: CC[C@H](C)[C@H](N)C(=O)O [isoleucine]
Absorbance reading (530 nm), AVG of reps (AHAS of 14CS0851-01-14; [12]): 0.209
Absorbance reading (530 nm), raw data (AHAS of 14CS0851-01-14; [12]): 0.201 and 0.217
Absorbance reading (530 nm), AVG of reps (AHAS of 14CS0851-01-14; [13]): 0.186
Absorbance reading (530 nm), raw data (AHAS of 14CS0851-01-14; [14]): 0.170
Absorbance reading (530 nm), raw data (AHAS of 14CS0851-01-14; [13]): 0.200 and 0.171
Absorbance reading (530 nm), AVG of reps (AHAS of 14CS0851-01-14; [15]): 0.088
Absorbance reading (530 nm), raw data (AHAS of 14CS0851-01-14; [15]): 0.087 and 0.082 and 0.094
Absorbance reading (530 nm), AVG of reps (AHAS of SRS 934; [12]): 0.234
Absorbance reading (530 nm), raw data (AHAS of SRS 934; [12]): 0.233
Absorbance reading (530 nm), AVG of reps (AHAS of SRS 934; [13]): 0.187
Absorbance reading (530 nm), raw data (AHAS of SRS 934; [13]): 0.219 and 0.154
Absorbance reading (530 nm), AVG of reps (AHAS of SRS 934; [15]): 0.033
Absorbance reading (530 nm), raw data (AHAS of SRS 934; [15]): 0.100
Absorbance reading (530 nm), AVG of reps (AHAS of MIDAS; [12]): 0.2675
Absorbance reading (530 nm), raw data (AHAS of MIDAS; [12]): 0.275 and 0.26
Absorbance reading (530 nm), AVG of reps (AHAS of MIDAS; [14]): 0.163
Absorbance reading (530 nm), raw data (AHAS of MIDAS; [13]): 0.208 and 0.176
Absorbance reading (530 nm), AVG of reps (AHAS of MIDAS; [15]): 0.103
Absorbance reading (530 nm), raw data (AHAS of MIDAS; [15]): 0.100 and 0.107 and 0.102

sensitivity of AHAS to feedback inhibition, comparison of enzyme extracts (AHAS of 14CS0851-01-14; 100 mM amino acid): no significant difference
SMILES: CC(C)C[C@H](N)C(=O)O [leucine]
Absorbance reading (530 nm), AVG of reps (AHAS of 14CS0851-01-14; Experiment 1, 100 mM amino acid): 0.143

sensitivity of AHAS to feedback inhibition, comparison of enzyme extracts (AHAS of 14CS0851-01-14; 100 mM amino acid): no significant difference
SMILES: CC(C)[C@H](N)C(=O)O [valine]
Absorbance reading (530 nm), AVG of reps (AHAS of 14CS0851-01-14; Experiment 2, 10 mM amino acid): 0.178
Absorbance reading (530 nm), raw data (AHAS of 14CS0851-01-14; Experiment 2, 10 mM amino acid): 0.190
Absorbance reading (530 nm), raw data (AHAS of 14CS0851-01-14; [14]): 0.333
Absorbance reading (530 nm), AVG of reps (AHAS of 14CS0851-01-14; Experiment 3, 10 mM amino acid): 0.073
Absorbance reading (530 nm), raw data (AHAS of 14CS0851-01-14; Experiment 3, 10 mM amino acid): 0.057 and 0.084
Absorbance reading (530 nm), AVG of reps (AHAS of SRS 934; Experiment 1, 10 mM amino acid): 0.184
Absorbance reading (530 nm), raw data (AHAS of SRS 934; Experiment 1, 10 mM amino acid): 0.186 and 0.182
Absorbance reading (530 nm), AVG of reps (AHAS of SRS 934; Experiment 2, 10 mM amino acid): 0.179
Absorbance reading (530 nm), raw data (AHAS of SRS 934; [16]): 0.206 and 0.151
Absorbance reading (530 nm), AVG of reps (AHAS of SRS 934; Experiment 3, 10 mM amino acid): 0.093
Absorbance reading (530 nm), raw data (AHAS of SRS 934; Experiment 3, 10 mM amino acid): 0.091
Absorbance reading (530 nm), AVG of reps (AHAS of MIDAS; Experiment 1, 10 mM amino acid): 0.214
Absorbance reading (530 nm), raw data (AHAS of MIDAS; Experiment 1, 10 mM amino acid): 0.205 and 0.223
Absorbance reading (530 nm), AVG of reps (AHAS of MIDAS; Experiment 2, 10 mM amino acid): 0.191
Absorbance reading (530 nm), raw data (AHAS of MIDAS; Experiment 2, 10 mM amino acid): 0.217
Absorbance reading (530 nm), raw data (AHAS of MIDAS; [16]): 0.165
Absorbance reading (530 nm), AVG of reps (AHAS of MIDAS; Experiment 3, 10 mM amino acid): 0.112
Absorbance reading (530 nm), raw data (AHAS of MIDAS; Experiment 3, 10 mM amino acid): 0.133 and 0.110 and 0.112
